Assay results as given in patent US20180264282A1, “Specially Designed Kit To Aid Photo-Biologic Eradication Of Staphylococcus Aureus And MRSA In The Nares” (Nomir Medical Technologies, Inc., priority 2017, published 2018).
“And” between values parts separate entries of the source, which are not always exact repeats. Equal entries are not always repeated. Where two headings read alike, the source gives them in different places.

Legend:
S. aureus [1] = conditions: cited from earlier work
[2] = test system: gram-positive bacteria such as S. aureus; conditions: cited from earlier work
[3] = test system: gram-negative enterobacteriacea; conditions: cited from earlier work
S. aureus [4] = assay: summary of clinical nasal decolonization studies using mupirocin treatments; assay type: in vivo, human; conditions: administered three times per day versus twice per day
Description: Overall, the results from clinical studies of nasal decolonization studies using various mupirocin treatments are summarized in the table below: […]

MRSA = conditions: cited from earlier work
[5] = test system: gram-positive enterococci; conditions: cited from earlier work
pyogenic skin infections = conditions: 2% water miscible cream three times per day for five days; assessed day seven; cited from earlier work
S. aureus [6] = conditions: in paraffin intra-nasally b.i.d. for five days; 72 hours after therapy; cited from earlier work
S. aureus [7] = conditions: cited from earlier work; remark: listed apart in the source
S. aureus [8] = conditions: b.i.d. five day regimen; cited from earlier work
S. aureus [9] = conditions: cited from earlier work; remark: listed apart in the source
S. aureus [10] = conditions: cited from earlier work; remark: listed apart in the source
[11] = test system: Staphylococcal furunculosis in the nose; conditions: 25% aqueous solution, topical; patients with chronic Staphylococcal furunculosis in the nose; cited from earlier work
[12] = test system: nasal carriage of staphylococci; conditions: in snuff compounds; returned to normal after snuff therapy was discontinued; cited from earlier work
sycosis barbae = conditions: cream to skin lesions and nose; cited from earlier work
S. aureus [13] = conditions: after five days of local treatment to the nose, cited from earlier work
[14] = test system: impetigo and furunculosis; conditions: spray; cited from earlier work
S. aureus [15] = conditions: nasal administration; cited from earlier work
[16] = three weeks after the treatment phase

C/C(=C\C(=O)OCCCCCCCCC(=O)O)C[C@@H]1OC[C@H](C[C@@H]2O[C@H]2[C@@H](C)[C@H](C)O)[C@@H](O)[C@H]1O [mupirocin]
effective concentrations (S. aureus [1]): 0.05 to 0.5 µg/mL
mutant inhibitory concentration (MIC) (S. aureus [1]): 0.05 µg/mL
type of effect at MIC (S. aureus [1]; within MIC range cells recover in fresh media, higher concentrations needed for bactericidal effect): bacteriostatic
antibacterial activity [2]: antibacterial activity
cross-resistance with other antibiotics [2]: no cross-resistance
antibacterial activity [3]: not substantial activity
outcomes t.i.d. compared with b.i.d. (S. aureus [4]): statistically significantly better outcomes
treated patients and staff with nasal carriage eliminated (MRSA; 2% in paraffin t.i.d. for five days, 40 patients and 32 staff): all
number of patients with MRSA isolated from wrists (MRSA; immediately after therapy was completed, from 16 before): three
time to elimination of nasal carriage (MRSA; usually): ≤ 48 h
patients recolonized (MRSA; within two weeks after therapy): Four
antibacterial activity [5]: not substantial activity
patients with infection completely cleared (pyogenic skin infections): 43 of the 46
proportion of hand cultures positive for S. aureus (S. aureus [6]): 2.9%
Elimination after trial (S. aureus [7]; 2X-3X per day, 3-8 days): 97%
Elimination after trial (S. aureus [7]; 3X per Day, 5 Days): 100% and 97%
Elimination after trial (S. aureus [7]; 4X per Day, 5 Days): 100%
Recolonization (S. aureus [7]; at 3 weeks, 4X per Day, 5 Days): 16% at 3 weeks
Recolonization (S. aureus [7]; at 4 weeks, 2X per day, 5 days): 43% at 4 weeks and 22% at 4 weeks and 26% at 4 weeks
patients with nasal carriage eliminated (S. aureus [8]): approximately 80%
participants with S. aureus eradicated (S. aureus [9]; in paraffin t.i.d. for five days, tested four days after the last dose): 67 of the 69
patients recolonized with S. aureus in the nose (S. aureus [9]; two weeks post therapy): approximately 40%
patients with S. aureus carriage eliminated from nares (S. aureus [10]; 2% in white soft paraffin four times per day, 18 treated): all
change in MIC to mupirocin on recolonization (S. aureus [10]; [16]): without an increase
patients who regained S. aureus in the nares (S. aureus [10]; [16]): three

[Cl][Al]([Cl])[Cl] [aluminum chloride]
treatment outcome [11]: successful treatment outcome for all

Nc1ccc(S(=O)(=O)Nc2nccs2)cc1 [sulphathiazole]
nasal colonies [12]: great reduction in nasal colonies

penicillin
healing of patients (sycosis barbae): all but one patient healed to satisfaction
skin carriage (S. aureus [13]; from 57% before): 38%
nasal S. aureus carriage (S. aureus [13]; from 97% before): 37%
use in treatment of impetigo and furunculosis [14]: successful
nasal colonies [12]: great reduction in nasal colonies

Cc1onc(-c2ccccc2)c1C(=O)N[C@@H]1C(=O)N2[C@@H]1SC(C)(C)[C@@H]2C(=O)O [oxacillin]
aerial colonies of S. aureus (S. aureus [15]): decreased the aerial colonies of S. aureus
nasal colonization (S. aureus [15]): decreased nasal colonization
